{"source": "patent US20250353873A1", "about": "“COMPOUNDS AND METHODS FOR MODULATING APOE EXPRESSION” (Ionis Pharmaceuticals, Inc., priority 2024, published 2025)", "key": {"human APOE RNA [1]": {"test_system": "human APOE RNA", "test": "Dose-dependent reduction of human APOE RNA in HepG2 cells, electroporation, 20,000 cells per well, average of GAPDH- and PPIA-normalized results (Example 4, Table 12)", "assay_type": "cell-based", "conditions": "HepG2, 20,000 cells per well", "experimental": "(§1) HepG2 cells plated at a density of 20,000 cells per well were treated by electroporation with various concentrations of modified oligonucleotide as specified in the tables below. […] APOE RNA levels were measured using the human primer probe set RTS3073 (described herein above). APOE RNA levels were normalized to human GAPDH, and human PPIA. Human GAPDH was amplified using human primer probe set RTS104 (described herein above). Human PPIA was amplified using human primer probe set mk_cycloA_2nd (described herein above) The average of the GAPDH-normalized results and the PPIA-normalized results are presented in the table below as percent APOE RNA, relative to the amount of APOE RNA in untreated control cells (% UTC). The half maximal inhibitory concentration (IC50) of each modified oligonucleotide was calculated in GraphPad Prism 10 (GraphPad Software, San Diego, CA) and is also presented in the table below."}, "human APOE RNA [2]": {"test_system": "human APOE RNA", "test": "Duration of action study in APOE C57BL/6NTac-Apoeem7250 knock-in mice (Example 18)", "assay_type": "in vivo", "conditions": "single ICV bolus 300 μg, APOE knock-in mice, normalized to mouse Ppia, relative to PBS", "experimental": "Modified oligonucleotides described above were tested in the APOE C57BL/6NTac-Apoeem7250 knock-in model (described above).\nEach mouse received a single intracerebroventricular (ICV) bolus of 300 μg of modified oligonucleotide. A group of 4-6 mice received a single ICV bolus with PBS as a negative control.\nMice were sacrificed at various timepoints as indicated in the table below and RNA was extracted from cortical brain tissue and spinal cord for quantitative real-time RT-PCR analysis of RNA expression of APOE using primer probe set RTS3073 (described herein above). APOE RNA levels were normalized to mouse Ppia. Mouse Ppia was amplified using primer probe set m_cyclo24 (described herein above). Results are presented as percent human APOE RNA relative to the amount of human APOE RNA in PBS treated animals, (% control). Each experiment is identified in separate tables below."}, "human APOE RNA [3]": {"test_system": "human APOE RNA", "test": "Dose-dependent reduction of human APOE RNA in HepG2 cells, electroporation, 20,000 cells per well, normalized to PPIA (Example 4, Table 11)", "assay_type": "cell-based", "conditions": "HepG2 cells, 20,000 cells per well, approximately 24 hours", "experimental": "as §1, with “human” for “human GAPDH, and human”, “PPIA.” for “PPIA. Human GAPDH was amplified using human primer probe set RTS104 (described herein above).”, “mk_cycloA_2nd (forward sequence […], designated” for “mk_cycloA_2nd (described”, “herein as SEQ ID NO: 13; reverse sequence […], designated herein as SEQ ID NO: 14; probe sequence […], designated herein as SEQ ID NO: 15). Normalized” for “herein above) The average of the GAPDH-normalized results and the PPIA-normalized”"}, "human APOE RNA [4]": {"test_system": "human APOE RNA", "test": "Potency (dose response, ED50) in APOE C57BL/6NTac-Apoeem7250 knock-in mice, 8 weeks (Example 15)", "assay_type": "in vivo", "experimental": "Modified oligonucleotides described above were tested in the APOE C57BL/6NTac-Apoeem7250 knock-in mouse model described above.\nAPOE C57BL/6NTac-Apoeem7250 knock-in mice were divided into groups of 3-4 mice each. A group of 4 mice received a single ICV bolus with PBS as a negative control.\nEight weeks post treatment, mice were sacrificed, and RNA was extracted from cortical brain tissue and spinal cord for quantitative real-time RT-PCR analysis of RNA expression of […] using human primer probe set RTS3073 (described herein above). APOE RNA levels were normalized to mouse Ppia. Mouse Ppia was amplified using primer probe set m_cyclo24 (described herein above). Results are presented as percent human APOE RNA relative to the amount of APOE RNA in PBS treated animals, (% control). N.C. indicates values that were not calculated.\nThe half maximal effective dose (ED50) of each modified oligonucleotide was calculated using GraphPad Prism 10 software (GraphPad Software, San Diego, CA)."}}, "note": "pIC50: −log10 of the molar value. Marks after values point to notes of the source that are not given here. Strand notation (5' to 3'): a small letter for the sugar, then the base; units joined by * are phosphorothioate-linked, units joined directly phosphodiester-linked; [ ] holds rarer units or linkages, { } end groups; capitals alone tell only the bases. [ms] = mesyl phosphoramidate linkage; k = constrained ethyl (cEt); [5mC] = 5-methylcytosine; d = 2'-deoxy (DNA)", "data": [{"substance": "^mCksTksTksGdzGdzTdzGdzAdzAdzTds^mCdsTdsTdsTdsAdsTdsTksAksAdzAk (antisense k[5mC]*kT*kT*dG[ms]dG[ms]dT[ms]dG[ms]dA[ms]dA[ms]dT*d[5mC]*dT*dT*dT*dA*dT*kT*kA*dA[ms]kA) [Compound No. 1785602]", "values": [{"measurement": "APOE RNA (% UTC)", "setting": "human APOE RNA [1]; 5 nM", "result": 97, "unit": "% UTC"}, {"measurement": "APOE RNA (% UTC)", "setting": "human APOE RNA [1]; 13 nM", "result": 91, "unit": "% UTC"}, {"measurement": "APOE RNA (% UTC)", "setting": "human APOE RNA [1]; 33 nM", "result": 85, "unit": "% UTC"}, {"measurement": "APOE RNA (% UTC)", "setting": "human APOE RNA [1]; 82 nM", "result": 70, "unit": "% UTC"}, {"measurement": "APOE RNA (% UTC)", "setting": "human APOE RNA [1]; 205 nM", "result": 56, "unit": "% UTC"}, {"measurement": "APOE RNA (% UTC)", "setting": "human APOE RNA [1]; 512 nM", "result": 36, "unit": "% UTC"}, {"measurement": "APOE RNA (% UTC)", "setting": "human APOE RNA [1]; 1,280 nM", "result": 33, "unit": "% UTC"}, {"measurement": "APOE RNA (% UTC)", "setting": "human APOE RNA [1]; 3,200 nM", "result": 8, "unit": "% UTC"}, {"measurement": "APOE RNA (% UTC)", "setting": "human APOE RNA [1]; 8,000 nM", "result": 21, "unit": "% UTC"}, {"measurement": "APOE RNA (% UTC)", "setting": "human APOE RNA [1]; 20,000 nM", "result": 3, "unit": "% UTC"}, {"measurement": "pIC50", "setting": "human APOE RNA [1]; approximately 24 hours", "result": 6.52}, {"measurement": "APOE RNA (% control) Cortex", "setting": "human APOE RNA [2]; 196 days post-dose", "result": 56, "unit": "% control"}, {"measurement": "APOE RNA (% control) Cortex", "setting": "human APOE RNA [2]; 224 days post-dose", "result": 79, "unit": "% control"}, {"measurement": "APOE RNA (% control) Cortex", "setting": "human APOE RNA [2]; 285 days post-dose", "result": "84† % control"}, {"measurement": "APOE RNA (% control) Spinal Cord", "setting": "human APOE RNA [2]; 196 days post-dose", "result": 34, "unit": "% control"}, {"measurement": "APOE RNA (% control) Spinal Cord", "setting": "human APOE RNA [2]; 224 days post-dose", "result": 56, "unit": "% control"}, {"measurement": "APOE RNA (% control) Spinal Cord", "setting": "human APOE RNA [2]; 285 days post-dose", "result": "72† % control"}, {"measurement": "APOE RNA (% UTC) 5 nM", "setting": "human APOE RNA [3]; PPIA-normalized, 5 nM", "result": 75, "unit": "% UTC"}, {"measurement": "APOE RNA (% UTC) 13 nM", "setting": "human APOE RNA [3]; PPIA-normalized, 13 nM", "result": 85, "unit": "% UTC"}, {"measurement": "APOE RNA (% UTC) 33 nM", "setting": "human APOE RNA [3]; PPIA-normalized, 33 nM", "result": 75, "unit": "% UTC"}, {"measurement": "APOE RNA (% UTC) 82 nM", "setting": "human APOE RNA [3]; PPIA-normalized, 82 nM", "result": 62, "unit": "% UTC"}, {"measurement": "APOE RNA (% UTC) 205 nM", "setting": "human APOE RNA [3]; PPIA-normalized, 205 nM", "result": 44, "unit": "% UTC"}, {"measurement": "APOE RNA (% UTC) 512 nM", "setting": "human APOE RNA [3]; PPIA-normalized, 512 nM", "result": 31, "unit": "% UTC"}, {"measurement": "APOE RNA (% UTC) 1,280 nM", "setting": "human APOE RNA [3]; PPIA-normalized, 1,280 nM", "result": 16, "unit": "% UTC"}, {"measurement": "APOE RNA (% UTC) 3,200 nM", "setting": "human APOE RNA [3]; PPIA-normalized, 3,200 nM", "result": 10, "unit": "% UTC"}, {"measurement": "APOE RNA (% UTC) 8,000 nM", "setting": "human APOE RNA [3]; PPIA-normalized, 8,000 nM", "result": 8, "unit": "% UTC"}, {"measurement": "APOE RNA (% UTC) 20,000 nM", "setting": "human APOE RNA [3]; PPIA-normalized, 20,000 nM", "result": 2, "unit": "% UTC"}, {"measurement": "pIC50", "setting": "human APOE RNA [3]; reduction of human APOE RNA, PPIA-normalized", "result": 6.85}, {"measurement": "APOE RNA (% control) Cortex", "setting": "human APOE RNA [4]; cortex, ICV dose 10 μg", "result": 95, "unit": "% control"}, {"measurement": "APOE RNA (% control) Cortex", "setting": "human APOE RNA [4]; cortex, ICV dose 30 μg", "result": 90, "unit": "% control"}, {"measurement": "APOE RNA (% control) Cortex", "setting": "human APOE RNA [4]; cortex, ICV dose 100 μg", "result": 57, "unit": "% control"}, {"measurement": "APOE RNA (% control) Cortex", "setting": "human APOE RNA [4]; cortex, ICV dose 300 μg", "result": 31, "unit": "% control"}, {"measurement": "APOE RNA (% control) Cortex", "setting": "human APOE RNA [4]; cortex, ICV dose 700 μg", "result": 21, "unit": "% control"}, {"measurement": "ED 50 (μg) Cortex", "setting": "human APOE RNA [4]; cortex, single ICV bolus, GraphPad Prism 10", "result": 153.2, "unit": "µg"}, {"measurement": "APOE RNA (% control) Spinal Cord", "setting": "human APOE RNA [4]; spinal cord, ICV dose 10 μg", "result": 73, "unit": "% control"}, {"measurement": "APOE RNA (% control) Spinal Cord", "setting": "human APOE RNA [4]; spinal cord, ICV dose 30 μg", "result": 40, "unit": "% control"}, {"measurement": "APOE RNA (% control) Spinal Cord", "setting": "human APOE RNA [4]; spinal cord, ICV dose 100 μg", "result": 26, "unit": "% control"}, {"measurement": "APOE RNA (% control) Spinal Cord", "setting": "human APOE RNA [4]; spinal cord, ICV dose 300 μg", "result": 20, "unit": "% control"}, {"measurement": "APOE RNA (% control) Spinal Cord", "setting": "human APOE RNA [4]; spinal cord, ICV dose 700 μg", "result": 22, "unit": "% control"}, {"measurement": "ED 50 (μg) Spinal Cord", "setting": "human APOE RNA [4]; spinal cord, single ICV bolus, GraphPad Prism 10", "result": 26.9, "unit": "µg"}]}]}
